From patent US11702417B2, “Compounds for improving mRNA splicing” (The General Hospital Corporation, priority 2015, dated 2023)
Like-named read-outs stand apart in the source and are kept apart here.

Tested on: FD (familial dysautomonia) IKBKAP minigene, exon 20 inclusion, in HEK293T cells
Experiment: Primary splicing assay (FD IKBKAP minigene, Firefly/Renilla luciferase reporter in HEK293T)
Type: cell-based, human
Details: for EC (maximum kinetin efficacy) / Emax: Homo sapiens, HEK-293T; for EC (maximum kinetin efficacy): HEK293T, read-out: ECk (compound concentration at which the maximum kinetin efficacy (200 μM) is reached); for ECk (RT-PCR): determined by RT-PCR, footnote a Firefly inhibitor, footnote b Renilla interference
Description: As used herein, the expression “ECk” refers to the compound concentration at which the maximum kinetin efficacy (200 μM) is reached.
Splicing analysis was made possible by using an FD (familial dysautomonia) IKBKAP minigene which contained exon 19 through exon 21, including intervening introns, and also the T→C Thymine to cytosine transition located 6 base-pairs from the end of IKBKAP exon 20; See SEQ ID NO:3 for the complete sequence of plasmid pcDNA3.1/V5HisTOPO with Renilla-Familial Dysautonomia minigene-Firefly. Firefly luciferase (SEQ ID NO:14) was utilized as a splicing reporter, located downstream of exon 21, and Renilla luciferase (SEQ ID NO:13) was used as a control, located upstream of exon 19. The sequence of exon 19 is presented as SEQ ID NO:7; the Intron between Exon 19 and Exon 20 is SEQ ID NO:8; exon 20 is SEQ ID NO:9; the intron between […]; exon 21 is SEQ ID NO: 11, and the spliced sequence of exons 19-20-21 is SEQ ID NO:12. HEK293T cells were plated in a 6-well plate 24 hours prior to transfection. Transfection was carried out using a mixture of Opti-MEM (GIBCO ref. 31985), IKBKAP minigene, and Fugene HID (PROMEGA ref. E2311), incubated in DMEM media containing HEK293T cells at 37° C. The ratio of Opti-MEM, minigene, and Fugene was kept at approximately 9:1.5:1, with a total volume of 150 μL of transfection mixture applied per well.
After 4 hours of transfection, the cells were then plated in a 96-well plate coated with poly-L-lysine (SIGMA cat.P4707) for treatment scheduled 24 hours later. […] After 24 hours of treatment, cells were washed in the poly-L-lysine coated 96-well plate using PBS and subsequently harvested using Passive Lysis Buffer (Promega cat.E196). Cell lysate was transferred to a black and white 96-well plate and analyzed for splicing correction using a Glomax luminometer (PROMEGA GloMax® 96 Microplate Luminometer w/Dual Injectors cat.E6521) and Promega Dual Glo Firefly and Stop and Glo Renilla reagents (Cat.E196). The compound's ability to correct splicing and promote exon 20 inclusion was marked by an increase in Firefly signal. Renilla signal, which is independent of exon 20 inclusion, was used to correct for cell number. Using the ratio of Firefly to Renilla signal, a dose response curve was produced, which referenced kinetin and DMSO Firefly/Renilla ratios as positive and negative controls, respectively.

[1] = Firefly/Renilla ratio, 24 hours of treatment
[2] = max efficacy in Primary Assay, Firefly/Renilla ratio, kinetin and DMSO as positive and negative controls, 24 hours of treatment, read-out: Emax (%)
[3] = max efficacy, value marked (RT-PCR), footnote a: Firefly inhibitor, read-out: Emax (%) (RT-PCR)
[4] = max efficacy in Primary Assay, value flagged footnote a: Firefly inhibitor, read-out: Emax (%)

Row | SMILES | EC (maximum kinetin efficacy) [1] | Emax [2] | further results
1 | Cc1c[nH]c2nc(Cl)nc(NCc3ccncn3)c12 [(126)] | 4.73 µM | 155% | –
2 | OCCn1ccc2c(NCc3ccncn3)nc(Cl)nc21 [(127)] | 5.45 µM | 264% | –
3 | Cc1cn(CCO)c2nc(Cl)nc(NCc3ccncn3)c12 [(128)] | 15.4 µM | 155% | –
4 | Clc1nc(NCc2ccncn2)c2nc[nH]c2n1 [(129)] | 5.6 µM | 169% | –
5 | OCCn1cc(F)c2c(NCc3nccs3)nc(Cl)nc21 [(130)] | 8.9 µM | 201% | –
6 | Clc1nc(NCc2nccs2)c2nc[nH]c2n1 [(131)] | 7 µM | 190% | –
7 | O[C@H]1C=C[C@H](n2ccc3c(NCc4ccco4)nc(Cl)nc32)C1 [(132)] | – | – | Emax [3]: 67.7%
8 | [N-]=[N+]=Nc1nc2c(NCc3ccco3)nc(Cl)nc2[nH]1 [(133)] | 11.8 µM | 143% | –
9 | Clc1nc(NCc2ccncc2)c2nc[nH]c2n1 [(134)] | 6.25 µM | 174% | –
10 | OCCn1cc(F)c2c(NCc3ccncc3)nc(Cl)nc21 [(135)] | 9.06 µM | 194% | –
11 | Cc1cc2c(NCc3ccncn3)nc(Cl)nc2[nH]1 [(136)] | 7.52 µM | 143% | –
12 | OCCn1ccc2c(NCc3nccs3)nc(Cl)nc21 [(137)] | 7.25 µM | 214% | –
13 | OCCn1cc(F)c2c(NCc3ccncn3)nc(Cl)nc21 [(138)] | 12.8 µM | 174% | –
14 | O[C@@H]1C=C[C@H](n2ccc3c(NCc4ccco4)nc(Cl)nc32)C1 [(139)] | – | – | Emax [3]: 52.2%
15 | Clc1nc(NCc2ccncc2)c2nc(C3CC3)[nH]c2n1 [(141)] | – | 103% | –
16 | Clc1nc(NCc2nccs2)c2nc(C3CC3)[nH]c2n1 [(142)] | 16.1 µM | 121% | –
17 | Cc1[nH]c2nc(Cl)nc(NCc3ccco3)c2c1Br [(143)] | – | 24% | –
18 | Clc1nc(NCc2ccncn2)c2nc(C3CC3)[nH]c2n1 [(144)] | 7.7 µM | 127% | –
19 | N#Cc1c[nH]c2nc(Cl)nc(NCc3ccco3)c12 [(145)] | – | 59% | –
20 | Nc1nc2c(NCc3ccco3)nc(Cl)nc2[nH]1 [(146)] | 9.41 µM | 154% | –
21 | Cc1cc2c(NCc3nccs3)nc(Cl)nc2[nH]1 [(147)] | – | 80% | –
22 | N#Cc1c[nH]c2nc(Cl)nc(NCc3nccs3)c12 [(148)] | – | 62% | –
23 | FCCn1ccc2c(NCc3ccco3)nc(Cl)nc21 [(150)] | – | – | Emax [3]: 320%; ECk (RT-PCR): 1 to 10 µM
24 | N#Cc1c[nH]c2nc(Cl)nc(NCc3ccncc3)c12 [(151)] | – | 73% | –
25 | N#Cc1c[nH]c2nc(Cl)nc(NCc3ccncn3)c12 [(152)] | – | 35% | –
26 | CN(C)C(=O)Cn1ccc2c(NCc3ccco3)nc(Cl)nc21 [(153)] | – | 20% | –

Row | SMILES | EC (maximum kinetin efficacy) [1] | Emax [2] | further results
27 | Cc1cc2c(NCc3ccco3)nc(Cl)nc2n1CCO [(154)] | 22.2 µM | 151% | –
28 | CC(C)(O)Cn1ccc2c(NCc3ccco3)nc(Cl)nc21 [(155)] | 22.2 µM | – | Emax [4]: 151%
29 | Clc1nc(NCc2ccco2)c2cc(C3CC3)[nH]c2n1 [(156)] | 15.8 µM | 73% | –
30 | COCc1c[nH]c2nc(Cl)nc(NCc3ccco3)c12 [(158)] | 13.4 µM | 20% | –
31 | Cc1[nH]c2nc(Cl)nc(NCc3ccco3)c2c1F [(159)] | – | – | Emax [4]: 228%; ECk (RT-PCR): 1 to 10 µM
32 | FC(F)(F)CCn1ccc2c(NCc3ccco3)nc(Cl)nc21 [(160)] | – | 85% | –
33 | CNC(=O)Cn1ccc2c(NCc3ccco3)nc(Cl)nc21 [(161)] | – | 65% | –
34 | N#Cc1nc2c(NCc3ccco3)nc(Cl)nc2[nH]1 [(162)] | 48.7 µM | 103% | –
35 | Clc1nc(NCc2cc3ccccc3o2)c2cc[nH]c2n1 [(163)] | – | 35% | –
36 | Clc1nc(NCc2cc3ccccc3o2)c2nc[nH]c2n1 [(164)] | – | 68% | –
37 | NC(=O)c1c[nH]c2nc(Cl)nc(NCc3ccco3)c12 [(165)] | – | 59% | –
38 | COCc1cc2c(NCc3ccco3)nc(Cl)nc2[nH]1 [(166)] | – | 80% | –
39 | O=C(O)Cn1ccc2c(NCc3ccco3)nc(Cl)nc21 [(167)] | – | 37% | –
40 | O=C(c1c[nH]c2nc(Cl)nc(NCc3ccco3)c12)N1CCCC1 [(168)] | – | 54% | –
41 | OCc1cc2c(NCc3ccco3)nc(Cl)nc2[nH]1 [(170)] | 49.5 µM | 92% | –
42 | Cc1nc2c(NCc3ccco3)c(C(N)=O)cnc2[nH]1 [(171)] | – | 48% | –
43 | CNC(=O)c1c[nH]c2nc(Cl)nc(NCc3ccco3)c12 [(172)] | – | 61% | –
44 | Clc1nc(NCc2ccco2)c2c(CN3CCCC3)c[nH]c2n1 [(173)] | – | 30% | –
45 | Clc1nc(NCc2cccnn2)c2cc[nH]c2n1 [(174)] | – | 37% | –
46 | Clc1nc(NCc2ccno2)c2nc[nH]c2n1 [(175)] | – | 29% | –
47 | Clc1nc(NCc2ccnnc2)c2cc[nH]c2n1 [(176)] | – | 48% | –
48 | CNCc1c[nH]c2nc(Cl)nc(NCc3ccco3)c12 [(177)] | – | 60% | –
49 | Clc1nc(NCc2ccno2)c2cc[nH]c2n1 [(178)] | – | 76% | –
50 | Clc1nc(NCc2ccnnc2)c2nc[nH]c2n1 [(179)] | – | 49% | –
51 | CN(C)Cc1c[nH]c2nc(Cl)nc(NCc3ccco3)c12 [(180)] | – | 28% | –
52 | CNCc1cc2c(NCc3ccco3)nc(Cl)nc2[nH]1 [(181)] | 8.4 µM | 122% | –

Row | SMILES | EC (maximum kinetin efficacy) [1] | Emax [2] | further results
53 | Clc1nc(NCc2ccco2)c2ccn(C3CCOCC3)c2n1 [(182)] | – | 20% | –
54 | COc1nc2c(NCc3ccncc3)nc(Cl)nc2[nH]1 [(184)] | 3.62 µM | 169% | –
55 | Clc1nc(NCc2ccnc3ccccc23)c2nc[nH]c2n1 [(185)] | – | 22% | –
56 | Clc1nc(NCc2ccnc3ccccc23)c2cc[nH]c2n1 [(186)] | – | 17% | –
57 | CNC(=O)c1cc2c(NCc3ccco3)nc(Cl)nc2[nH]1 [(187)] | – | 111% | –
58 | NC(=O)c1cc2c(NCc3ccco3)nc(Cl)nc2[nH]1 [(188)] | 11.7 µM | 145% | –
59 | Cc1cc(CNc2nc(Cl)nc3[nH]ccc23)ccn1 [(189)] | – | 33% | –
60 | O=C(c1cc2c(NCc3ccco3)nc(Cl)nc2[nH]1)N1CCCC1 [(190)] | – | 68% | –
61 | FCCn1ccc2c(NCc3ccncn3)nc(Cl)nc21 [(191)] | 5.92 µM | 231% | –
62 | FCCn1ccc2c(NCc3nccs3)nc(Cl)nc21 [(192)] | 7.13 µM | 210% | –
63 | FCCn1ccc2c(NCc3ccncc3)nc(Cl)nc21 [(194)] | 4.49 µM | 241% | –
64 | CN(C)C(=O)c1cc2c(NCc3ccco3)nc(Cl)nc2[nH]1 [(195)] | – | 81% | –
65 | Cc1cc(CNc2nc(Cl)nc3[nH]cnc23)ccn1 [(196)] | – | 7% | –
66 | CC(=O)N1CCC(n2ccc3c(NCc4ccco4)nc(Cl)nc32)CC1 [(197)] | – | 14% | –
67 | Clc1cc(NCc2ccco2)c2nc[nH]c2n1 [(198)] | 5.01 µM | 125% | –
68 | OCCNc1nc2c(NCc3ccco3)nc(Cl)nc2[nH]1 [(199)] | – | 22% | –
69 | FC(F)(F)CN1CCC(n2ccc3c(NCc4ccco4)nc(Cl)nc32)CC1 [(200)] | – | 11% | –
70 | Cc1[nH]c2nc(Cl)nc(NCc3ccncc3)c2c1F [(201)] | – | 27% | –
71 | CNc1nc2c(NCc3ccco3)nc(Cl)nc2n1CCO [(202)] | 9.35 µM | 137% | –
72 | CC(=O)NCCn1ccc2c(NCc3ccco3)nc(Cl)nc21 [(203)] | – | – | Emax [4]: 27%
73 | Cc1[nH]c2nc(Cl)nc(NCc3ccncn3)c2c1F [(204)] | – | 27% | –
74 | Clc1nc(NCc2ccco2)c2c(Cl)c[nH]c2n1 [(205)] | 6.41 µM | 27% | –
75 | CN(C)CCn1ccc2c(NCc3ccco3)nc(Cl)nc21 [(206)] | – | 27% | –
76 | Clc1nc(NCc2ccncc2)c2c(Cl)c[nH]c2n1 [(207)] | 75.8 µM | 109% | –
77 | Clc1nc(NCc2nccs2)c2c(Cl)c[nH]c2n1 [(208)] | 107 µM | 83% | –
